Here are results for eight compounds from patent publication US20110009496A1, “RESVERATROL FORMULATIONS” (SIRTRIS PHARMACEUTICAS, INC., priority 2008, published 2011).

In one data set the test system is HDAC. Conditions: in vitro or in vivo; cited from earlier work.
The target in data set [1] is cytochrome oxidase (Complex IV) (Homo sapiens, UniProt P00395). The settings on record: cited from earlier work.
The target of a further data set is Sir2 (Saccharomyces cerevisiae, UniProt P06700). The settings on record: cited from earlier work.
Chain of Sir2 (P06700 whole entry): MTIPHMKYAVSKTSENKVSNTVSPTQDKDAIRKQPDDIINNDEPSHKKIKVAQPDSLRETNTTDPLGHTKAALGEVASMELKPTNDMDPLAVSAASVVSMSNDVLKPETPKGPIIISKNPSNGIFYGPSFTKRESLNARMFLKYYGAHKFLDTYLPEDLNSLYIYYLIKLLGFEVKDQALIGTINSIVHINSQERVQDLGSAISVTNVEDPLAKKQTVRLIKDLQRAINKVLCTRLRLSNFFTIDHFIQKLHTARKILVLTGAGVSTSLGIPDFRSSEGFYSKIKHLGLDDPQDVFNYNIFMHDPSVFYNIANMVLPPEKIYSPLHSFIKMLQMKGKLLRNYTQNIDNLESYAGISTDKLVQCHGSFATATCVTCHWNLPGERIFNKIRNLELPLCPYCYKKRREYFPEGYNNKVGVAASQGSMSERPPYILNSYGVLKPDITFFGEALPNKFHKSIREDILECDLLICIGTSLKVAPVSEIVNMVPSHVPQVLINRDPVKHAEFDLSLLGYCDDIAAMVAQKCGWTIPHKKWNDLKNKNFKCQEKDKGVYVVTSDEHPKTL
Another data set deals with retinal ganglion cells. Conditions: treated animals; cited from earlier work.
For another data set, the system named is mammalian cells. Conditions: cited from earlier work.
The next data set deals with C. elegans. Conditions: in vivo; cited from earlier work.
For the next data set, the system named is insulin resistant cells. The settings on record: cited from earlier work.
Data set [2] is described as follows: Dilution of liquid resveratrol formulations with purified water (precipitation). Type of data set: physicochemical. Conditions: DS dissolved in Gelucire 44/14 at 100 mg/g. How it is done:
A liquid formulation was prepared by dissolving resveratrol (drug substance, DS) and monoacyl phospholipid in a mixture of PEG 300 and propyleneglycol. The ratio between the DS and phospholipid was 1/12 w/w in PEG 300/propyleneglycol 1/1 w/was solvent mixture. The formulation, which has a 5% drug load, was clear after dilution in purified water for more than 4 hours. Starting from Formulation 13, the drug load was increased to 10% using the same 1/1 w/w ratio of Vit E TPGS/DS and replacing propyleneglycol with Labrasol™. Upon one-fold dilution with water a slight DS precipitation was observed. […] After a few hours, some oil droplets were visible on the surface of the water phase. To further improve Formulation 11, the use of the two lipids Gelucire™ 44/14 and Labrasol™ were explored as main components in the formulations. […] The DS precipitated in the form of oil-like droplets. […] Higher drug loads can be achieved by using the two lipids in combination with ethanol as additional solvent/excipient to fully solubilize the drug in the formulation.

The conditions of data set [3]: topical; cited from earlier work.

As to `O=C(/C=C/c1cccc(C(=O)NO)c1)NO` [CBHA, m-carboxy-cinnamic acid bishydroxamic acid], the “inhibition of HDAC (concentration level in words)” value (“inhibition of HDAC” for short) with HDAC is “micromolar concentration or lower”.

On to `C/C=C1\NC(=O)[C@H]2CSSCC/C=C/[C@H](CC(=O)N[C@H](C(C)C)C(=O)N2)OC(=O)[C@H](C(C)C)NC1=O` [Depsipeptide, depsipeptide], for which, in the data set on HDAC, the “inhibition of HDAC” value is given as “micromolar concentrations”.

Regarding `[N]=O` [Nitric oxide], the “concentration that inhibits cytochrome oxidase (Complex IV)” value in [1] is “about 1 micromolar”.

For `CC(/C=C/C(=O)NO)=C\[C@@H](C)C(=O)c1ccc(N(C)C)cc1` [TSA, trichostatin A], the “sensitivity of Sir2 to histone deacetylase inhibitors” value on Sir2 is recorded as “insensitive”. Also, the “inhibition of HDAC” value in the data set on HDAC is listed as “potent inhibitor”.

As to `N=C(N)NN` [aminoguanidine], in the data set with retinal ganglion cells, the “loss of retinal ganglion cells” value is “reduction in the loss of retinal ganglion cells”.

`Oc1ccc(/C=C/c2cc(O)cc(O)c2)cc1` [resveratrol, 3,5,4′-trihydroxystilbene]: in the data set with mammalian cells, the “adipogenesis in mammalian cells” value is on record as “inhibit adipogenesis” and the “fat mobilization in mammalian cells” value is reported as “stimulate fat mobilization”. In the data set on C. elegans, the “fat accumulation in C. elegans” value is “prevent fat accumulation” and the “fat mobilization in C. elegans” value is given as “promotes fat mobilization”. The “insulin sensitivity in insulin resistant cells” value in the data set on insulin resistant cells is given as “at least partially restore insulin sensitivity”. In [2], the “precipitation after dilution with purified water” value is recorded as “precipitated in a fast manner”.

With `CC(C)(C)NC[C@H](O)COc1nsnc1N1CCOCC1` [timolol], in data set [3], the “time for IOP to fall” value was 30 min and the “time of peak effects on IOP” value was 1 to 2 h.

On to depudecin, for which the “inhibition of HDAC” value in the data set with HDAC was “micromolar concentrations”.
